The series in a line: Determination of the protein binding (90% serum, 30 kDa filter, HPLC). Format: in vitro ADME. Particulars: serum. The procedure: Protein binding assays were performed as follows. The purified peptides were mixed with 90% serum and centrifuged through a 30 kDa filter. The ultra-filtrate and the non filtrated serum samples were quantified by HPLC measurements and the protein binding was subsequently calculated.

Where a SMILES comes first, the peptide text is derived from it. Bridges are numbered along the chain shown (N, C = ends).

Molecule `CC(C)[C@@H]1NC(=O)CNC(=O)[C@H](CC(N)=O)NC(=O)[C@H](CCCNC(=N)N)NC(=O)[C@H](CCCCN)NC(=O)[C@H](C(C)C)NC(=O)[C@@H]2CSSC[C@H](NC(=O)[C@H](C(C)C)NC(=O)[C@H](CCCNC(=N)N)NC1=O)C(=O)N[C@@H](Cc1ccc(O)cc1)C(=O)N[C@@H](CCCNC(=N)N)C(=O)N[C@@H](CCCNC(=N)N)C(=O)N[C@H](C(=O)N[C@@H](CC(N)=O)C(=O)O)CSSC[C@H](NC(=O)[C@H](Cc1ccccc1)NC(=O)CN)C(=O)N[C@@H](C)C(=O)N[C@@H](CCCNC(=N)N)C(=O)N[C@@H](C(C)C)C(=O)N2` [compound 125] (H-GFCARVCVKRNGVRVCYRRCN-OH; disulfide 3-20, 7-16 (inferred); N-terminus and C-terminus assumed) gave a fraction unbound of 0.1.

`CC(C)[C@@H]1NC(=O)CNC(=O)[C@H](CC(N)=O)NC(=O)[C@H](CCCNC(=N)N)NC(=O)[C@H](Cc2ccc(O)cc2)NC(=O)[C@H](C(C)C)NC(=O)[C@@H]2CSSC[C@H](NC(=O)[C@H](C(C)C)NC(=O)[C@H](CCCNC(=N)N)NC1=O)C(=O)N[C@@H](Cc1c[nH]cn1)C(=O)N[C@@H](CCCNC(=N)N)C(=O)N[C@@H](CCCNC(=N)N)C(=O)N[C@H](C(=O)NCC(=O)O)CSSC[C@H](NC(=O)[C@H](Cc1ccccc1)NC(=O)CN)C(=O)N[C@@H](Cc1c[nH]c3ccccc13)C(=O)N[C@@H](CC(N)=O)C(=O)N[C@@H](C(C)C)C(=O)N2` [compound 281] (H-GFCWNVCVYRNGVRVCHRRCG-OH; disulfide 3-20, 7-16 (inferred); N-terminus and C-terminus assumed): the fraction unbound was 0.34. In the case of `CC(C)[C@@H]1NC(=O)CNC(=O)[C@H](CC(N)=O)NC(=O)[C@H](CCCNC(=N)N)NC(=O)[C@H](Cc2ccc(O)cc2)NC(=O)[C@H](C(C)C)NC(=O)[C@@H]2CSSC[C@H](NC(=O)[C@H](CCCNC(=N)N)NC(=O)[C@H](CCCNC(=N)N)NC1=O)C(=O)N[C@@H](Cc1c[nH]cn1)C(=O)N[C@@H](CCCNC(=N)N)C(=O)N[C@@H](CCCNC(=N)N)C(=O)N[C@H](C(=O)N[C@@H](CC(N)=O)C(=O)O)CSSC[C@H](NC(=O)[C@H](Cc1ccccc1)NC(=O)CN)C(=O)N[C@@H](Cc1c[nH]c3ccccc13)C(=O)N[C@@H](CC(N)=O)C(=O)N[C@@H](C(C)C)C(=O)N2` [compound 252] (H-GFCWNVCVYRNGVRRCHRRCN-OH; disulfide 3-20, 7-16 (inferred); N-terminus and C-terminus assumed), the fraction unbound is 0.24. The result for `CC(C)[C@@H]1NC(=O)[C@@H]2CSSC[C@H](NC(=O)[C@H](C(C)C)NC(=O)[C@H](CCCNC(=N)N)NC(=O)[C@H](C(C)C)NC(=O)[C@H](Cc3ccc(O)cc3)NC(=O)[C@H](CC(N)=O)NC(=O)[C@H](CCCNC(=N)N)NC(=O)[C@H](Cc3ccc(O)cc3)NC1=O)C(=O)N[C@@H](Cc1c[nH]cn1)C(=O)N[C@@H](CCCNC(=N)N)C(=O)N[C@@H](CCCNC(=N)N)C(=O)N[C@H](C(=O)N[C@@H](CC(N)=O)C(=O)O)CSSC[C@H](NC(=O)[C@H](Cc1ccccc1)NC(=O)CN)C(=O)N[C@@H](Cc1c[nH]c3ccccc13)C(=O)N[C@@H](CC(N)=O)C(=O)N[C@@H](C(C)C)C(=O)N2` [compound 229] (H-GFCWNVCVYRNYVRVCHRRCN-OH; disulfide 3-20, 7-16 (inferred); N-terminus and C-terminus assumed) reads 0.09. The result for `CC(C)[C@@H]1NC(=O)CNC(=O)[C@H](CC(N)=O)NC(=O)[C@H](CCCNC(=N)N)NC(=O)[C@H](Cc2ccc(O)cc2)NC(=O)[C@H](C(C)C)NC(=O)[C@@H]2CSSC[C@H](NC(=O)[C@H](C(C)C)NC(=O)[C@H](CCCNC(=N)N)NC1=O)C(=O)N[C@@H](Cc1c[nH]cn1)C(=O)N[C@@H](CCCNC(=N)N)C(=O)N[C@@H](CCCNC(=N)N)C(=O)N[C@H](C(=O)N[C@@H](CC(N)=O)C(=O)O)CSSC[C@H](NC(=O)[C@H](Cc1ccccc1)NC(=O)[C@@H](N)CCCCN)C(=O)N[C@@H](Cc1c[nH]c3ccccc13)C(=O)N[C@@H](CC(N)=O)C(=O)N[C@@H](C(C)C)C(=O)N2` [compound 100] (H-KFCWNVCVYRNGVRVCHRRCN-OH; disulfide 3-20, 7-16 (inferred); N-terminus and C-terminus assumed) reads 0.22; that for `CC(C)[C@@H]1NC(=O)CNC(=O)[C@H](CC(N)=O)NC(=O)[C@H](CCCNC(=N)N)NC(=O)[C@H](Cc2ccc(O)cc2)NC(=O)[C@H](C(C)C)NC(=O)[C@@H]2CSSC[C@H](NC(=O)[C@H](CCCNC(=N)N)NC(=O)[C@H](CCCNC(=N)N)NC1=O)C(=O)N[C@@H](Cc1ccc(O)cc1)C(=O)N[C@@H](CCCNC(=N)N)C(=O)N[C@@H](CCCNC(=N)N)C(=O)N[C@H](C(=O)N[C@@H](CC(N)=O)C(=O)O)CSSC[C@H](NC(=O)[C@H](Cc1ccccc1)NC(=O)CN)C(=O)NCC(=O)N[C@@H](CCCNC(=N)N)C(=O)N[C@@H](C(C)C)C(=O)N2` [compound 170] (H-GFCGRVCVYRNGVRRCYRRCN-OH; disulfide 3-20, 7-16 (inferred); N-terminus and C-terminus assumed), 0.13; that for `CC(C)[C@@H]1NC(=O)CNC(=O)[C@H](CC(N)=O)NC(=O)[C@H](CCCNC(=N)N)NC(=O)[C@H](Cc2ccc(O)cc2)NC(=O)[C@H](C(C)C)NC(=O)[C@@H]2CSSC[C@H](NC(=O)[C@H](C(C)C)NC(=O)[C@H](CCCNC(=N)N)NC1=O)C(=O)N[C@@H](CO)C(=O)N[C@@H](CCCNC(=N)N)C(=O)N[C@@H](CCCNC(=N)N)C(=O)N[C@H](C(=O)N[C@@H](CC(N)=O)C(=O)O)CSSC[C@H](NC(=O)[C@H](Cc1ccccc1)NC(=O)CN)C(=O)N[C@@H](Cc1c[nH]c3ccccc13)C(=O)N[C@@H](CCCCN)C(=O)N[C@@H](C(C)C)C(=O)N2` [compound 68] (H-GFCWKVCVYRNGVRVCSRRCN-OH; disulfide 3-20, 7-16 (inferred); N-terminus and C-terminus assumed), 0.13. In the case of `CC(C)[C@@H]1NC(=O)CNC(=O)[C@H](CC(N)=O)NC(=O)[C@H](CCCNC(=N)N)NC(=O)[C@H](Cc2ccc(O)cc2)NC(=O)[C@H](C(C)C)NC(=O)[C@@H]2CSSC[C@H](NC(=O)[C@H](CCCNC(=N)N)NC(=O)[C@H](CCCNC(=N)N)NC1=O)C(=O)N[C@@H](Cc1ccc(O)cc1)C(=O)N[C@@H](CCCNC(=N)N)C(=O)N[C@@H](CCCNC(=N)N)C(=O)N[C@H](C(=O)N[C@@H](CC(N)=O)C(=O)O)CSSC[C@H](NC(=O)[C@H](Cc1ccccc1)NC(=O)CN)C(=O)N[C@@H](Cc1ccc(O)cc1)C(=O)N[C@@H](CC(N)=O)C(=O)N[C@@H](C(C)C)C(=O)N2` [compound 207] (H-GFCYNVCVYRNGVRRCYRRCN-OH; disulfide 3-20, 7-16 (inferred); N-terminus and C-terminus assumed) it was 0.09; in that of `CC(C)[C@@H]1NC(=O)CNC(=O)[C@H](CC(N)=O)NC(=O)[C@H](CCCNC(=N)N)NC(=O)[C@H](C)NC(=O)[C@H](C(C)C)NC(=O)[C@@H]2CSSC[C@H](NC(=O)[C@H](C(C)C)NC(=O)[C@H](CCCNC(=N)N)NC1=O)C(=O)N[C@@H](Cc1c[nH]cn1)C(=O)N[C@@H](CCCNC(=N)N)C(=O)N[C@@H](CCCNC(=N)N)C(=O)N[C@H](C(=O)N[C@@H](CC(N)=O)C(=O)O)CSSC[C@H](NC(=O)[C@H](Cc1ccccc1)NC(=O)CN)C(=O)N[C@@H](Cc1c[nH]c3ccccc13)C(=O)N[C@@H](CC(N)=O)C(=O)N[C@@H](C(C)C)C(=O)N2` [compound 299] (H-GFCWNVCVARNGVRVCHRRCN-OH; disulfide 3-20, 7-16 (inferred); N-terminus and C-terminus assumed), 0.26; in that of `CC(C)[C@@H]1NC(=O)CNC(=O)[C@H](CC(N)=O)NC(=O)[C@H](CCCNC(=N)N)NC(=O)[C@H](CCCCN)NC(=O)[C@H](C(C)C)NC(=O)[C@@H]2CSSC[C@H](NC(=O)[C@H](CCCCN)NC(=O)[C@H](CCCNC(=N)N)NC1=O)C(=O)N[C@@H](Cc1ccc(O)cc1)C(=O)N[C@@H](CCCNC(=N)N)C(=O)N[C@@H](CCCNC(=N)N)C(=O)N[C@H](C(=O)N[C@@H](CC(N)=O)C(=O)O)CSSC[C@H](NC(=O)[C@H](Cc1ccccc1)NC(=O)CN)C(=O)N[C@@H](Cc1ccccc1)C(=O)N[C@@H](CCCNC(=N)N)C(=O)N[C@@H](C(C)C)C(=O)N2` [compound 381] (H-GFCFRVCVKRNGVRKCYRRCN-OH; disulfide 3-20, 7-16 (inferred); N-terminus and C-terminus assumed), 0.02. `CC(C)[C@@H]1NC(=O)CNC(=O)[C@H](CC(N)=O)NC(=O)[C@H](CCCNC(=N)N)NC(=O)[C@H](Cc2ccc(O)cc2)NC(=O)[C@H](C(C)C)NC(=O)[C@@H]2CSSC[C@H](NC(=O)[C@H](C(C)C)NC(=O)[C@H](CCCNC(=N)N)NC1=O)C(=O)N[C@@H](Cc1ccc(O)cc1)C(=O)N[C@@H](CCCNC(=N)N)C(=O)N[C@@H](CCCNC(=N)N)C(=O)N[C@H](C(=O)N[C@@H](CC(N)=O)C(=O)O)CSSC[C@H](NC(=O)[C@H](Cc1ccccc1)NC(=O)CN)C(=O)NCC(=O)N[C@@H](CCCNC(=N)N)C(=O)N[C@@H](C(C)C)C(=O)N2` [compound 61] (H-GFCGRVCVYRNGVRVCYRRCN-OH; disulfide 3-20, 7-16 (inferred); N-terminus and C-terminus assumed) had a fraction unbound of 0.28. The result for `CC(C)[C@@H]1NC(=O)CNC(=O)[C@H](CC(N)=O)NC(=O)[C@H](CCCNC(=N)N)NC(=O)[C@H](Cc2ccc(O)cc2)NC(=O)[C@H](C(C)C)NC(=O)[C@@H]2CSSC[C@H](NC(=O)[C@H](CO)NC(=O)[C@H](CCCNC(=N)N)NC1=O)C(=O)N[C@@H](Cc1ccc(O)cc1)C(=O)N[C@@H](CCCNC(=N)N)C(=O)N[C@@H](CCCNC(=N)N)C(=O)N[C@H](C(=O)N[C@@H](CC(N)=O)C(=O)O)CSSC[C@H](NC(=O)[C@H](Cc1ccccc1)NC(=O)CN)C(=O)N[C@@H](Cc1c[nH]c3ccccc13)C(=O)N[C@@H](CCCNC(=N)N)C(=O)N[C@@H](C)C(=O)N2` [compound 320] (H-GFCWRACVYRNGVRSCYRRCN-OH; disulfide 3-20, 7-16) reads 0.12.

The values above are taken from patent US20160158317A1, “Antimicrobial Peptide Variants and Polynucleotides Encoding Same” (Adenium Biotech A/S, priority 2010, published 2016).
